Target: T1, STK22B (TSSK2) (Homo sapiens, UniProt Q96PF2)
T1 construct: purchased Thermo Fisher Scientific (Life Technologies) SelectScreen
Assay: SelectScreen Z'LYTE
Assay type: biochemical
How it was run: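 NU5455 was profiled across the SelectScreen Broad panel of kinase activity and binding assays. Z'LYTE reactions such as CSF1R ran at apparent Km ATP, while the Adapta CAMK1 assay used ATP listed as 10. Values are given as percent.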

T1 sequence (Q96PF2 whole entry): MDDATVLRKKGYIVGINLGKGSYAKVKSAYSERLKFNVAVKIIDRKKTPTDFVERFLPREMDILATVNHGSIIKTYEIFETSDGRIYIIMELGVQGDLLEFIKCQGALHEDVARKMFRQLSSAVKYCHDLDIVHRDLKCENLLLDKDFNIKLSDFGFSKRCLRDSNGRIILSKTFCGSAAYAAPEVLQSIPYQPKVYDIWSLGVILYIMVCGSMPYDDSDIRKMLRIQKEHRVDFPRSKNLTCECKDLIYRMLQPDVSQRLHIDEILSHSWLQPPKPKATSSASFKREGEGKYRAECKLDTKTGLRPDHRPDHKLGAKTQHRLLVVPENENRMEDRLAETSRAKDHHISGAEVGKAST

For `CN(C(=O)CN1CCOCC1)c1ccc2sc3c(-c4cccc5c(=O)cc(N6CC7CCC(C6)O7)oc45)cccc3c2c1` [NU5455], the inhibition at 1 µM was 2.8%.

Source: PMC6934184, “Selective DNA-PKcs inhibition extends the therapeutic index of localized radiotherapy and chemotherapy” (The Journal of Clinical Investigation, 2019)
